# Source: PubChem BioAssay (NCI)
#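 Values below derive from 48-hour exposures of cells grown in 96-well plates, with endpoints linearly interpolated between the two concentrations bracketing the appropriate inhibition level. GI50 = concentration required for 50% inhibition of growth. At the TGI there is no net growth.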
# Legend:
# Assay in all cases: NCI tumour cell line growth inhibition, 48 h
# [1] = system: A498 renal
# [2] = system: IGROV1 ovarian
# [3] = system: NCI-H23 lung
# [4] = system: NCI/ADR-RES ovarian
# [5] = system: SF-295 CNS
# [6] = system: SK-OV-3 ovarian
# [7] = system: SW-620 colon
# [8] = system: U251 CNS
# [9] = system: UO-31 renal
# [10] = system: BT-549 breast
Structure (SMILES),TGI [1] [µM],TGI [2] [µM],TGI [3] [µM],TGI [4] [µM],TGI [5] [µM],TGI [6] [µM],TGI [7] [µM],TGI [8] [µM],TGI [9] [µM],GI50 [10] [µM],TGI [10] [µM],GI50 [2] [µM],GI50 [3] [µM],GI50 [4] [µM],GI50 [5] [µM],GI50 [7] [µM],GI50 [8] [µM],GI50 [9] [µM],GI50 [1] [µM],GI50 [6] [µM]
N#CC1(C#N)C2(c3ccccc3)OC(c3ccccc3)(c3cc4ccccc4cc32)C1(C#N)C#N,35.1,31.2,16.6,43.8,29.9,37.4,9.72,35.9,26.5,–,–,–,–,–,–,–,–,–,–,–
COc1cc(Br)c(C=Nc2cccc3cc(OC)c(OC)cc23)cc1OC,–,> 100,> 100,–,73.4,> 100,> 100,> 100,> 100,–,–,–,–,–,–,–,–,–,–,–
CCOC(=O)c1c(C)nc2c(c1N)CC(=O)N2Cc1ccc(OC)cc1,–,> 100,> 100,> 100,7.37,–,> 100,> 100,> 100,6.3,> 100,80.3,4.26,4.96,2.53,> 100,4.14,> 100,–,–
C=C(CN1C(=O)CN(C)C1=O)c1ccc(C(=O)Nc2ccccc2N)cc1,31.2,> 100,> 100,> 100,> 100,9.96,> 100,–,> 100,61.8,> 100,12.3,26.8,12.5,19.5,19.4,–,11.8,4.3,1.64
CC1=C(C(=O)Nc2cc(=O)n(C)c(=O)n2C)C(c2ccco2)C(C(=O)Nc2cc(=O)n(C)c(=O)n2C)=C(C)N1,> 100,> 100,> 100,–,> 100,–,> 100,> 100,> 100,–,–,–,–,–,–,–,–,–,–,–
COc1ccc(C23C(=O)c4ccccc4N2O[C@H]2C(=O)N(c4ccccc4)C(=O)[C@H]23)cc1 (stereo partly drawn),> 100,> 100,> 100,–,> 100,> 100,> 100,> 100,> 100,–,–,–,–,–,–,–,–,–,–,–
Cc1nnn[n-]1.N.N.N.N.N.[Cl-].[Co+3],72,85,> 100,–,> 100,> 100,> 100,> 100,> 100,–,–,2.88,> 100,–,> 100,> 100,> 100,> 100,4.14,> 100
O=C1CC(O)CC(=O)C1=C(O)CCCCCCCCCCc1ccccc1 (stereo not drawn),–,> 100,> 100,–,> 100,> 100,> 100,> 100,> 100,–,–,–,–,–,–,–,–,–,–,–
O=C(O)CCC(=O)N1c2ccccc2CC1c1c[nH]c2ccccc12 (stereo not drawn),> 100,> 100,> 100,–,> 100,> 100,> 100,> 100,> 100,–,–,–,–,–,–,–,–,–,–,–
O=C1N(C2CCCCC2)CC12CCCCC2,> 100,> 100,> 100,–,–,> 100,> 100,> 100,> 100,–,–,–,–,–,–,–,–,–,–,–
COc1ccc(-c2cc3c(c4cc(OC)ccc24)C(=O)OC3=O)cc1,–,> 100,> 100,> 100,> 100,> 100,> 100,> 100,> 100,–,> 100,–,–,–,–,–,–,–,–,–
CC1=C(c2ccccc2)C(c2ccccc2)=C(c2ccccc2)C2(c3ccccc3)C(=O)C(C)CN12 (stereo not drawn),> 100,> 100,–,–,37.7,> 100,> 100,> 100,> 100,–,–,–,–,–,–,–,–,–,–,–
N.N.N.N.N.NC(=O)c1nn[n-]n1.[Cl-].[Co+3],–,> 100,> 100,–,> 100,> 100,> 100,> 100,> 100,–,–,> 100,> 100,–,> 100,> 100,> 100,> 100,–,> 100
COc1ccc(/C=C/C(=O)c2cc(OC)c(OC)c(OC)c2)cc1OCc1cn(Cc2ccc(F)cc2)nn1,56.2,> 100,64.2,> 100,–,–,> 100,19.4,79.8,3.45,27.7,7.4,18.9,2.99,–,3.16,2.94,4,12.2,–
CC1(C)O[C@H]2[C@H](O)C[C@](O)(CO)C[C@H]2O1,–,> 100,> 100,–,> 100,> 100,> 100,> 100,> 100,–,–,–,–,–,–,–,–,–,–,–
O=C(COc1ccc(Cl)cc1)N1N=C(c2ccc(Cl)cc2)CC1(O)c1ccccc1 (stereo not drawn),26.5,61.6,33.9,–,82,> 63.6,> 69.3,38.3,> 100,–,–,–,–,–,–,–,–,–,–,–
N.N.N.N.[Co+3].[N-]=[N+]=[N-].[N-]=[N+]=[N-].[N-]=[N+]=[N-],> 100,> 100,> 100,–,> 100,> 100,> 100,> 100,> 100,–,–,> 100,> 100,–,> 100,> 100,> 100,29.2,> 100,> 100
CCc1ccccc1NC(=O)C1=C(C)NC(C)=C(C(=O)Nc2ccccc2CC)C1c1ccccc1Cl,> 100,> 100,> 100,–,> 100,> 100,> 100,> 100,> 100,–,–,–,–,–,–,–,–,–,–,–
COc1ccc(C(=S)N2CCN(c3cccc(C)c3)CC2)cc1OC,> 100,–,> 100,–,44.8,> 100,> 100,> 100,> 100,6.31,> 100,–,9.08,–,4.26,3.04,5.8,4.37,4.85,7.24
C=C(C)[C@@H]1CC[C@]2(C)CC[C@]3(C)[C@H](CC[C@@H]4[C@@]5(C)CC[C@H](O)C(C)(C)[C@@H]5CC[C@]43C)[C@@H]12,32.6,> 100,> 100,> 100,> 82.7,–,> 72.3,41,> 72.1,–,29.3,–,–,–,–,–,–,–,–,–
